Data from PMC8162404, “Proteomimetic surface fragments distinguish targets by function” (Chemical Science, 2020).
Read-outs that look alike come from different tables or passages of the source.

What was measured:
Test in all cases: Pull-down assay with immobilized protein and LSM libraries
[1] = target: T1, CaM (Bos taurus, UniProt P62157); assay type: binding, bovine
T1 construct: made in house; host or cells: E. coli BL21 (DE3)
Outline: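 His-tagged protein immobilized on Co-NTA resin, equilibrated 30 min at room temperature with LSM sublibraries (64 members, […]), equimolar protein to total probe. CaM buffer: 20 mM HEPES pH 7.4, 150 mM NaCl, 5 mM CaCl2. Bound fractions from HPLC-MS loss of unbound probe versus protein-free resin control; Kd derived.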

[2] = target: T2, S100A4 (Homo sapiens, UniProt P26447); assay type: binding; details: 1:1 binding assumed, read-out: Surface mapping KD (apparent)
T2 construct: made in house; host or cells: Escherichia coli BL21(DE3)
T2 sequence (P26447 whole entry): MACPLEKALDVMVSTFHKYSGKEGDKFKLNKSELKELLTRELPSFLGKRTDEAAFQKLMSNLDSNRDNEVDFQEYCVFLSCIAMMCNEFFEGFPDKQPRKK
Outline: (§1)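 Buffers were HEPES pH 7.4 with 150 mM NaCl, plus 1 mM TCEP and 1 mM CaCl2 (50 mM HEPES) for S100A4 and S100B, 1 mM TCEP for Gal-1, and no additive for RecQ-WH. Immobilized protein at 64 µM was equilibrated 30 min with the LSM sublibrary, and unbound probes were measured by LC-MS.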

[3] = target: T3, S100B (Homo sapiens, UniProt P04271); assay type: binding; details: 1:1 binding assumed, read-out: Surface mapping KD (apparent)
T3 construct: made in house; host or cells: Escherichia coli BL21(DE3)
T3 sequence (P04271 1-92): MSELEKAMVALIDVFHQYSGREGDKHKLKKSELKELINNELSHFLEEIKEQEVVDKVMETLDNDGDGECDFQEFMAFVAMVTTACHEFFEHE
Outline: as §1

[4] = target: T4, Gal-1 (Homo sapiens, UniProt P09382); assay type: binding; details: 1:1 binding assumed, read-out: Surface mapping KD (apparent)
T4 construct: made in house; host or cells: E. coli BL21(DE3)
T4 sequence (P09382 whole entry): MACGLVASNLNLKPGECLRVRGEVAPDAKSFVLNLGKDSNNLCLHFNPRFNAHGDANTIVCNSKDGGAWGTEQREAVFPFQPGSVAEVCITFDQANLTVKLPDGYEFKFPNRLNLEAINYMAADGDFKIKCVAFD
Outline: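 His-tagged protein immobilized on Co-NTA resin (64 µM) in 20 mM HEPES pH 7.4, 150 mM NaCl, equilibrated 30 min at room temperature with foldamer LSM sublibraries at equimolar total concentration. Unbound fractions quantified by HPLC-MS versus protein-free resin control; apparent KD assumes 1:1 binding.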

[5] = H12 library, 1:2 stoichiometry assumed, read-out: Surface mapping KD (apparent)
[6] = H14 library, 1:2 stoichiometry assumed, read-out: Surface mapping KD (apparent)

Structure (SMILES)	Kd [1, 5]	Kd ([2]; H12 library)	Kd ([3]; H12 library)	Kd ([4]; H12 library)	Kd [1, 6]	Kd ([2]; H14 library)	Kd ([4]; H14 library)	Kd ([3]; H14 library)	Kd [1]
CC(C)C[C@@H](CC(=O)N[C@H]1CCC[C@@H]1C(=O)N[C@H]1CCC[C@@H]1C(N)=O)NC(=O)[C@H]1CCC[C@@H]1NC(=O)[C@H]1CCC[C@@H]1NC(=O)C[C@H](CC(C)C)NC(=O)[C@H]1CCC[C@@H]1NC(=O)[C@H]1CCC[C@@H]1N [H12 LL]	67 µM	131 µM	46 µM	415 µM					
CSCC[C@@H](CC(=O)N[C@H]1CCC[C@@H]1C(=O)N[C@H]1CCC[C@@H]1C(N)=O)NC(=O)[C@H]1CCC[C@@H]1NC(=O)[C@H]1CCC[C@@H]1NC(=O)C[C@H](Cc1c[nH]c2ccccc12)NC(=O)[C@H]1CCC[C@@H]1NC(=O)[C@H]1CCC[C@@H]1N [H12 WM]	42 µM	98 µM	20 µM						
CC(C)C[C@@H](CC(=O)N[C@H]1CCC[C@@H]1C(=O)N[C@H]1CCC[C@@H]1C(N)=O)NC(=O)[C@H]1CCC[C@@H]1NC(=O)[C@H]1CCC[C@@H]1NC(=O)C[C@H](CCCCN)NC(=O)[C@H]1CCC[C@@H]1NC(=O)[C@H]1CCC[C@@H]1N [H12 KL]	324 µM	89 µM	68 µM	316 µM					
CC(C)C[C@@H](CC(=O)N[C@H]1CCC[C@@H]1C(=O)N[C@H]1CCC[C@@H]1C(N)=O)NC(=O)[C@H]1CCC[C@@H]1NC(=O)[C@H]1CCC[C@@H]1NC(=O)C[C@H](CCCNC(=N)N)NC(=O)[C@H]1CCC[C@@H]1NC(=O)[C@H]1CCC[C@@H]1N [H12 RL]	252 µM	245 µM	56 µM	194 µM					
CSCC[C@@H](CC(=O)N[C@H]1CCC[C@@H]1C(=O)N[C@H]1CCC[C@@H]1C(N)=O)NC(=O)[C@H]1CCC[C@@H]1NC(=O)[C@H]1CCC[C@@H]1NC(=O)C[C@H](Cc1ccccc1)NC(=O)[C@H]1CCC[C@@H]1NC(=O)[C@H]1CCC[C@@H]1N [H12 FM]		197 µM	39 µM						42 µM
CSCC[C@@H](CC(=O)N[C@H]1CCC[C@@H]1C(=O)N[C@H]1CCC[C@@H]1C(=O)N[C@H](CC(=O)N[C@H]1CCC[C@@H]1C(=O)N[C@H]1CCC[C@@H]1C(N)=O)Cc1ccccc1)NC(=O)[C@H]1CCC[C@@H]1NC(=O)[C@H]1CCC[C@@H]1N [H12 MF]	74 µM	303 µM	32 µM						
C[C@@H](CC(=O)N[C@H]1CCCC[C@@H]1C(N)=O)NC(=O)[C@H]1CCCC[C@@H]1NC(=O)[C@H]1CCCC[C@@H]1NC(=O)C[C@H](C)NC(=O)[C@H]1CCCC[C@@H]1N [H14 AA]					402 µM	205 µM	326 µM		
CC(C)C[C@@H](CC(=O)N[C@H]1CCCC[C@@H]1C(N)=O)NC(=O)[C@H]1CCCC[C@@H]1NC(=O)[C@H]1CCCC[C@@H]1NC(=O)C[C@H](CCCCN)NC(=O)[C@H]1CCCC[C@@H]1N [H14 KL]					22 µM	85 µM		80 µM	
NC(=O)[C@H]1CCC[C@@H]1NC(=O)[C@H]1CCC[C@@H]1NC(=O)C[C@H](Cc1c[nH]c2ccccc12)NC(=O)[C@H]1CCC[C@@H]1NC(=O)[C@H]1CCC[C@@H]1NC(=O)C[C@H](Cc1ccc(O)cc1)NC(=O)[C@H]1CCC[C@@H]1NC(=O)[C@H]1CCC[C@@H]1N [H12 YW]	30 µM	153 µM	28 µM						
NC(=O)[C@H]1CCC[C@@H]1NC(=O)[C@H]1CCC[C@@H]1NC(=O)C[C@H](Cc1ccccc1)NC(=O)[C@H]1CCC[C@@H]1NC(=O)[C@H]1CCC[C@@H]1NC(=O)C[C@H](Cc1ccc(O)cc1)NC(=O)[C@H]1CCC[C@@H]1NC(=O)[C@H]1CCC[C@@H]1N [H12 YF]	30 µM	239 µM	36 µM						
CC(C)C[C@@H](CC(=O)N[C@H]1CCC[C@@H]1C(=O)N[C@H]1CCC[C@@H]1C(N)=O)NC(=O)[C@H]1CCC[C@@H]1NC(=O)[C@H]1CCC[C@@H]1NC(=O)C[C@H](Cc1ccc(O)cc1)NC(=O)[C@H]1CCC[C@@H]1NC(=O)[C@H]1CCC[C@@H]1N [H12 YL]		180 µM	81 µM	402 µM					
CSCC[C@@H](CC(=O)N[C@H]1CCC[C@@H]1C(=O)N[C@H]1CCC[C@@H]1C(=O)N[C@H](CC(=O)N[C@H]1CCC[C@@H]1C(=O)N[C@H]1CCC[C@@H]1C(N)=O)Cc1c[nH]c2ccccc12)NC(=O)[C@H]1CCC[C@@H]1NC(=O)[C@H]1CCC[C@@H]1N [H12 MW]	42 µM	170 µM	26 µM						
CSCC[C@@H](CC(=O)N[C@H]1CCC[C@@H]1C(=O)N[C@H]1CCC[C@@H]1C(=O)N[C@H](CC(=O)N[C@H]1CCC[C@@H]1C(=O)N[C@H]1CCC[C@@H]1C(N)=O)CC(C)C)NC(=O)[C@H]1CCC[C@@H]1NC(=O)[C@H]1CCC[C@@H]1N [H12 ML]	98 µM	245 µM	81 µM						
NC(=O)[C@H]1CCC[C@@H]1NC(=O)[C@H]1CCC[C@@H]1NC(=O)C[C@H](Cc1ccc(O)cc1)NC(=O)[C@H]1CCC[C@@H]1NC(=O)[C@H]1CCC[C@@H]1NC(=O)C[C@H](Cc1ccccc1)NC(=O)[C@H]1CCC[C@@H]1NC(=O)[C@H]1CCC[C@@H]1N [H12 FY]		192 µM	59 µM						

Continued, in another order:

Kd [1, 5]	Kd ([2]; H12 library)	Kd ([3]; H12 library)	Kd ([4]; H12 library)	Kd [1, 6]	Kd ([2]; H14 library)	Kd ([4]; H14 library)	Kd ([3]; H14 library)	Structure (SMILES)	Kd [1]
67 µM	79 µM	25 µM	395 µM					CC[C@H](C)[C@@H](CC(=O)N[C@H]1CCC[C@@H]1C(=O)N[C@H]1CCC[C@@H]1C(=O)N[C@H](CC(=O)N[C@H]1CCC[C@@H]1C(=O)N[C@H]1CCC[C@@H]1C(N)=O)CC(C)C)NC(=O)[C@H]1CCC[C@@H]1NC(=O)[C@H]1CCC[C@@H]1N [H12 IL]	
381 µM	400 µM	89 µM	198 µM					N=C(N)NCCC[C@@H](CC(=O)N[C@H]1CCC[C@@H]1C(=O)N[C@H]1CCC[C@@H]1C(=O)N[C@H](CC(=O)N[C@H]1CCC[C@@H]1C(=O)N[C@H]1CCC[C@@H]1C(N)=O)Cc1ccc(O)cc1)NC(=O)[C@H]1CCC[C@@H]1NC(=O)[C@H]1CCC[C@@H]1N [H12 RY]	
				90 µM	337 µM			NC(=O)C[C@@H](CC(=O)N[C@H]1CCCC[C@@H]1C(N)=O)NC(=O)[C@H]1CCCC[C@@H]1NC(=O)[C@H]1CCCC[C@@H]1NC(=O)C[C@H](Cc1ccccc1)NC(=O)[C@H]1CCCC[C@@H]1N [H14 FN]	
21 µM	125 µM	14 µM	130 µM					NC(=O)[C@H]1CCC[C@@H]1NC(=O)[C@H]1CCC[C@@H]1NC(=O)C[C@H](Cc1ccccc1)NC(=O)[C@H]1CCC[C@@H]1NC(=O)[C@H]1CCC[C@@H]1NC(=O)C[C@H](Cc1ccccc1)NC(=O)[C@H]1CCC[C@@H]1NC(=O)[C@H]1CCC[C@@H]1N [H12 FF]	
30 µM	153 µM	28 µM						NC(=O)[C@H]1CCC[C@@H]1NC(=O)[C@H]1CCC[C@@H]1NC(=O)C[C@H](Cc1ccc(O)cc1)NC(=O)[C@H]1CCC[C@@H]1NC(=O)[C@H]1CCC[C@@H]1NC(=O)C[C@H](Cc1c[nH]c2ccccc12)NC(=O)[C@H]1CCC[C@@H]1NC(=O)[C@H]1CCC[C@@H]1N [H12 WY]	
413 µM	56 µM	8 µM	151 µM					NC(=O)[C@H]1CCC[C@@H]1NC(=O)[C@H]1CCC[C@@H]1NC(=O)C[C@H](Cc1c[nH]c2ccccc12)NC(=O)[C@H]1CCC[C@@H]1NC(=O)[C@H]1CCC[C@@H]1NC(=O)C[C@H](Cc1c[nH]c2ccccc12)NC(=O)[C@H]1CCC[C@@H]1NC(=O)[C@H]1CCC[C@@H]1N [H12 WW]	
83 µM	183 µM	38 µM						CC(C)[C@@H](CC(=O)N[C@H]1CCC[C@@H]1C(=O)N[C@H]1CCC[C@@H]1C(N)=O)NC(=O)[C@H]1CCC[C@@H]1NC(=O)[C@H]1CCC[C@@H]1NC(=O)C[C@H](Cc1c[nH]c2ccccc12)NC(=O)[C@H]1CCC[C@@H]1NC(=O)[C@H]1CCC[C@@H]1N [H12 WV]	
	283 µM	64 µM	319 µM					CC[C@H](C)[C@@H](CC(=O)N[C@H]1CCC[C@@H]1C(=O)N[C@H]1CCC[C@@H]1C(N)=O)NC(=O)[C@H]1CCC[C@@H]1NC(=O)[C@H]1CCC[C@@H]1NC(=O)C[C@H](Cc1ccc(O)cc1)NC(=O)[C@H]1CCC[C@@H]1NC(=O)[C@H]1CCC[C@@H]1N [H12 YI]	
	422 µM	133 µM	226 µM					CC(C)[C@@H](CC(=O)N[C@H]1CCC[C@@H]1C(=O)N[C@H]1CCC[C@@H]1C(N)=O)NC(=O)[C@H]1CCC[C@@H]1NC(=O)[C@H]1CCC[C@@H]1NC(=O)C[C@H](CCCNC(=N)N)NC(=O)[C@H]1CCC[C@@H]1NC(=O)[C@H]1CCC[C@@H]1N [H12 RV]	
99 µM	230 µM							NC(=O)C[C@@H](CC(=O)N[C@H]1CCC[C@@H]1C(=O)N[C@H]1CCC[C@@H]1C(=O)N[C@@H](CO)CC(=O)N[C@H]1CCC[C@@H]1C(=O)N[C@H]1CCC[C@@H]1C(N)=O)NC(=O)[C@H]1CCC[C@@H]1NC(=O)[C@H]1CCC[C@@H]1N [H12 NS]	
				22 µM	85 µM		80 µM	CC[C@H](C)[C@@H](CC(=O)N[C@H]1CCCC[C@@H]1C(N)=O)NC(=O)[C@H]1CCCC[C@@H]1NC(=O)[C@H]1CCCC[C@@H]1NC(=O)C[C@H](CCCCN)NC(=O)[C@H]1CCCC[C@@H]1N [H14 KI]	
